Measurements taken from ChEMBL document CHEMBL4308841, “Synthesis, in vitro antiproliferative activity, and kinase inhibitory effects of pyrazole-containing diarylureas and diarylamides” (Eur J Med Chem, 2018).

Legend:
OVCAR-3 = test: Growth inhibition of human OVCAR3 cells assessed as cell growth at 0.1 uM incubated for 48 hrs by sulforhodamine B assay relative to control; type: functional; details: OVCAR-3, 48 h, read-out: Activity
CAKI-1 = test: Growth inhibition of human Caki1 cells assessed as cell growth at 1 uM incubated for 48 hrs by sulforhodamine B assay relative to control; type: functional; details: CAKI-1, 48 h, read-out: Activity
OVCAR-5 = test: Growth inhibition of human OVCAR5 cells assessed as cell growth at 1 uM incubated for 48 hrs by sulforhodamine B assay relative to control; type: functional; details: OVCAR-5, 48 h, read-out: Activity
TK-10 = test: Growth inhibition of human TK10 cells assessed as cell growth at 10 uM incubated for 48 hrs by sulforhodamine B assay relative to control; type: functional; details: TK-10, 48 h, read-out: Activity
HCT-116 [1] = test: Growth inhibition of human HCT116 cells assessed as cell growth at 0.01 uM incubated for 48 hrs by sulforhodamine B assay relative to control; type: functional; details: HCT-116, 48 h, read-out: Activity
SNB-75 [2] = test: Growth inhibition of human SNB75 cells assessed as cell growth at 1 uM incubated for 48 hrs by sulforhodamine B assay relative to control; type: functional; details: SNB-75, 48 h, read-out: Activity
Hs-578T [3] = test: Growth inhibition of human Hs578T cells incubated for 48 hrs by sulforhodamine B assay; type: functional, cell-based
HCT-15 [4] = test: Growth inhibition of human HCT15 cells assessed as cell growth at 100 uM incubated for 48 hrs by sulforhodamine B assay relative to control; type: functional; details: HCT-15, 48 h, read-out: Activity
SNB-75 [5] = test: Growth inhibition of human SNB75 cells assessed as cell growth at 0.1 uM incubated for 48 hrs by sulforhodamine B assay relative to control; type: functional; details: SNB-75, 48 h, read-out: Activity
BT-549 = test: Growth inhibition of human BT549 cells assessed as cell growth at 100 uM incubated for 48 hrs by sulforhodamine B assay relative to control; type: functional; details: BT-549, 48 h, read-out: Activity
786-0 = test: Growth inhibition of human 786-0 cells assessed as cell growth at 1 uM incubated for 48 hrs by sulforhodamine B assay relative to control; type: functional; details: 786-0, 48 h, read-out: Activity
NCI-H522 = test: Growth inhibition of human NCI-H522 cells incubated for 48 hrs by sulforhodamine B assay; type: functional, cell-based; details: NCI-H522, 48 h
M14 = test: Growth inhibition of human M14 cells assessed as cell growth at 0.1 uM incubated for 48 hrs by sulforhodamine B assay relative to control; type: functional; details: M14, 48 h, read-out: Activity
MDA-MB-468 = test: Growth inhibition of human MDA-MB-468 cells assessed as cell growth at 100 uM incubated for 48 hrs by sulforhodamine B assay relative to control; type: functional; details: MDA-MB-468, 48 h, read-out: Activity
HCT-15 [6] = test: Growth inhibition of human HCT15 cells incubated for 48 hrs by sulforhodamine B assay; type: functional, cell-based; details: HCT-15, 48 h
NCI-H23 [7] = test: Growth inhibition of human NCI-H23 cells assessed as cell growth at 1 uM incubated for 48 hrs by sulforhodamine B assay relative to control; type: functional; details: NCI-H23, 48 h, read-out: Activity
SNB-75 [8] = test: Growth inhibition of human SNB75 cells assessed as cell growth at 0.01 uM incubated for 48 hrs by sulforhodamine B assay relative to control; type: functional; details: SNB-75, 48 h, read-out: Activity
RXF 393 = test: Growth inhibition of human RXF393 cells assessed as cell growth at 0.01 uM incubated for 48 hrs by sulforhodamine B assay relative to control; type: functional; details: RXF 393, 48 h, read-out: Activity
NCI-H23 [9] = test: Growth inhibition of human NCI-H23 cells assessed as cell growth at 0.1 uM incubated for 48 hrs by sulforhodamine B assay relative to control; type: functional; details: NCI-H23, 48 h, read-out: Activity
SN12C = test: Growth inhibition of human SN12C cells assessed as cell growth at 0.1 uM incubated for 48 hrs by sulforhodamine B assay relative to control; type: functional; details: read-out: Activity
U-251 = test: Growth inhibition of human U251 cells assessed as cell growth at 1 uM incubated for 48 hrs by sulforhodamine B assay relative to control; type: functional; details: U-251, 48 h, read-out: Activity
Hs-578T [10] = test: Growth inhibition of human Hs578T cells assessed as cell growth at 0.1 uM incubated for 48 hrs by sulforhodamine B assay relative to control; type: functional; details: read-out: Activity
HT-29 = test: Growth inhibition of human HT-29 cells assessed as cell growth at 100 uM incubated for 48 hrs by sulforhodamine B assay relative to control; type: functional; details: HT-29, 48 h, read-out: Activity
Malme-3M = test: Growth inhibition of human MALME-3M cells incubated for 48 hrs by sulforhodamine B assay; type: functional, cell-based
SF-268 = test: Growth inhibition of human SF268 cells assessed as cell growth at 0.1 uM incubated for 48 hrs by sulforhodamine B assay relative to control; type: functional; details: SF-268, 48 h, read-out: Activity
SNB-19 = test: Growth inhibition of human SNB19 cells assessed as cell growth at 0.01 uM incubated for 48 hrs by sulforhodamine B assay relative to control; type: functional; details: SNB-19, 48 h, read-out: Activity
IGROV-1 = test: Growth inhibition of human IGROV1 cells assessed as cell growth at 0.1 uM incubated for 48 hrs by sulforhodamine B assay relative to control; type: functional; details: IGROV-1, 48 h, read-out: Activity
OVCAR-8 = test: Growth inhibition of human OVCAR8 cells incubated for 48 hrs by sulforhodamine B assay; type: functional, cell-based; details: OVCAR-8, 48 h
UO-31 = test: Growth inhibition of human UO31 cells assessed as cell growth at 100 uM incubated for 48 hrs by sulforhodamine B assay relative to control; type: functional; details: UO-31, 48 h, read-out: Activity
HCT-116 [11] = test: Growth inhibition of human HCT116 cells assessed as cell growth at 0.1 uM incubated for 48 hrs by sulforhodamine B assay relative to control; type: functional; details: HCT-116, 48 h, read-out: Activity
SR = test: Growth inhibition of human SR cells assessed as cell growth at 0.1 uM incubated for 48 hrs by sulforhodamine B assay relative to control; type: functional; details: read-out: Activity
[12] = read-out: LC50 (the source's name)
[13] = read-out: pLC50 (the source's name) (converted)

## O=C(Nc1cccc(-n2cc(-c3ccncc3)c(-c3cc(O)cc(Cl)c3)n2)c1)c1cc(C(F)(F)F)cc(C(F)(F)F)c1
OVCAR-3
  growth at 0.1 µM: 102%
CAKI-1
  growth at 1 µM: 90%
OVCAR-5
  growth at 1 µM: 99%
TK-10
  growth at 10 µM: 73%
HCT-116 [1]
  growth at 0.01 µM: 102%
SNB-75 [2]
  growth at 1 µM: 72%
Hs-578T [3]; read-out: GI50
  GI50: 6.38 µM
Hs-578T [3]; [12]
  CC50: > 100 µM
Hs-578T [3]; read-out: TGI
  TGI: > 100 µM
Hs-578T [3]; read-out: pGI50 (converted)
  GI50: 6.31 µM
Hs-578T [3]; [13]
  CC50: > 100 µM
Hs-578T [3]; read-out: pTGI (converted)
  TGI: > 100 µM
HCT-15 [4]
  growth at 100 µM: -47%
SNB-75 [5]
  growth at 0.1 µM: 87%
BT-549
  growth at 100 µM: -12%
786-0
  growth at 1 µM: 56%
NCI-H522; read-out: GI50
  GI50: 1.5 µM
NCI-H522; [12]
  CC50: > 100 µM
NCI-H522; read-out: TGI
  TGI: 83.7 µM
NCI-H522; read-out: pGI50 (converted)
  GI50: 1.58 µM
NCI-H522; [13]
  CC50: > 100 µM
NCI-H522; read-out: pTGI (converted)
  TGI: 8.32 µM
M14
  growth at 0.1 µM: 93%
MDA-MB-468
  growth at 100 µM: 2%
HCT-15 [6]; read-out: GI50
  GI50: 2.5 µM
HCT-15 [6]; [12]
  CC50: > 100 µM
HCT-15 [6]; read-out: TGI
  TGI: 14.7 µM
HCT-15 [6]; read-out: pGI50 (converted)
  GI50: 2.57 µM
HCT-15 [6]; [13]
  CC50: > 100 µM
HCT-15 [6]; read-out: pTGI (converted)
  TGI: 14.8 µM
NCI-H23 [7]
  growth at 1 µM: 98%
SNB-75 [8]
  growth at 0.01 µM: 58%
RXF 393
  growth at 0.01 µM: 96%
NCI-H23 [9]
  growth at 0.1 µM: 95%
SN12C
  growth at 0.1 µM: 98%
U-251
  growth at 1 µM: 53%
Hs-578T [10]
  growth at 0.1 µM: 92%
HT-29
  growth at 100 µM: -5%
Malme-3M; read-out: GI50
  GI50: 3.59 µM
Malme-3M; [12]
  CC50: > 100 µM
Malme-3M; read-out: TGI
  TGI: 94.4 µM
Malme-3M; read-out: pGI50 (converted)
  GI50: 3.72 µM
Malme-3M; [13]
  CC50: > 100 µM
Malme-3M; read-out: pTGI (converted)
  TGI: 95.5 µM
SF-268
  growth at 0.1 µM: 95%
SNB-19
  growth at 0.01 µM: 97%
IGROV-1
  growth at 0.1 µM: 98%
OVCAR-8; read-out: GI50
  GI50: 3.58 µM
OVCAR-8; [12]
  CC50: > 100 µM
OVCAR-8; read-out: TGI
  TGI: > 100 µM
OVCAR-8; read-out: pGI50 (converted)
  GI50: 3.55 µM
OVCAR-8; [13]
  CC50: > 100 µM
OVCAR-8; read-out: pTGI (converted)
  TGI: > 100 µM
UO-31
  growth at 100 µM: 13%
HCT-116 [11]
  growth at 0.1 µM: 100%
SR
  growth at 0.1 µM: 94%
